From patent US20220274938A1, “5-[(1S)-1-(4-BROMOPHENOXY)ETHYL]-2H-TETRAZOLE DERIVATIVES AND RELATED COMPOUNDS AS CLC-1 ION CHANNEL INHIBITORS FOR TREATING NEUROMUSCULAR DISORDERS” (NMD PHARMA A/S, priority 2019, published 2022)

Key:
[1] = tested on: isolated rat soleus muscles; assay: Measurement of force in an in vitro model: isolated rat soleus nerve-muscle preparation with tubocurarine; format: cell-based; conditions: Rattus norvegicus, 40 min; 50 μM test compound, after 40 mins of compound exposure; 115 nM tubocurarine for 90 mins; read-out: Point increase (%) of initial force that was restored
Procedure: FIG. 2. […] Force traces from a representative muscle stimulated to contract in 1) control condition before addition of neuromuscular blocking agent, 2) the force response to stimulation after 90 minutes incubation with Tubocurarine. […] The traces presented in panel A (1, 2, 3), correspond to the dotted lines in panel B, respectively.
Recovery of force is quantified as the percentage of the force prior to tubocurarine that is recovered by the compound.
The current disclosure relates to compounds that inhibit CIC-1 ion channels and increase muscle excitability and thereby improve muscle function in clinical conditions where muscle activation is failing. Such conditions result in loss of contractile function of skeletal muscle, weakness and excessive fatigue. In this series of experiments the compounds were tested for their ability to restore contractile function of isolated rat muscle when the neuromuscular transmission had been compromised akin to neuromuscular disorders.
Experimentally, soleus muscles from 4-5 week old rats were isolated with the motor nerve remaining attached. The nerve-muscle preparations were mounted in experimental setups that enabled electrical stimulation of the motor nerve. Stimulation of the motor nerve led to activation of the muscle fibres and ensuing force production that was recorded. The nerve-muscle preparations were also in these experiments incubated in the standard Krebs Ringer (see example 5) and the solution was heated to 30° C. and continuously equilibrated with a mixture of 95% O2 and 5% CO2, pH˜7.4.
After mounting the nerve-muscle preparation in the experimental setup, the contractile function of the muscle was initially assessed under the control conditions (FIG. 2A). […] The experimental condition mimics the failing neuromuscular transmission in a range of neuromuscular disorders. After addition of tubocurarine the contractile force declined over the next 90 mins to 10-50% of the control force. 50 μM of the test compound was then added and the contractile force recovered despite the continued presence of tubocurarine. To quantify the ability of the compound to restore force the percentage of the initial force that was restored was determined after 40 mins of compound exposure (FIG. 2B) and the point increase is reported in Table 3.

[2] = molecular target: T1, human CIC-1 channels (Homo sapiens, UniProt P35523); assay: Automated patch-clamp on the human isoform of CIC-1 expressed in CHO cells; format: cell-based; conditions: compound added to the intracellular solution vs control cell patches, positive shift reflects inhibition
T1 construct: host or cells: CHO (Chinese hamster ovary) cells, cryopreserved, used directly after thawing
Procedure: The investigatory goal of these experiments was to evaluate how compounds affect the open probability and current amplitude of human CIC-1 channels expressed in CHO cells. Experiments were performed using an automated patch clamp system that allowed high throughput testing of whole cell patches together with both intracellular and extracellular addition of compound.
Automated whole cell patch clamp experiments were performed with the Qpatch 16 system (Sophion Bioscience, Ballerup, Denmark) at room temperature. Data acquisition and analysis were performed in the Qassay software (ver. 5.6, Odense).
To obtain tail currents, the membrane potential was stepped to −100 mV after each test voltage for 300 ms and then relaxed to −30 mV for 2 sec between sweeps (FIG. 3). I/V relationships for whole cell instant and steady state current amplitudes were obtained by plotting average current densities at the beginning and at the end of the 300 ms step against the membrane potential (FIG. 4).
In order to determine the relative overall open probability (Po), the instantaneous tail currents were normalized to the maximal tail current obtained following the most positive voltage step and plotted against the test voltage. Plots of normalized tail currents from each whole cell patch were then fitted to a Boltzmann function allowing determination of half activation voltages (V1/2, FIG. 5).
Osmolality adjusted to ˜320 using sucrose. Intracellular solutions contained: 80 mM CsF, 60 mM CsCl, 5/1 mM KOH/EGTA, 10 mM HEPES, 10 mM NaCl, pH adjusted to 7.2 with NaOH (2 M). Osmolality adjusted to ˜320 mOsm using sucrose.
Cells used in patch clamp experiments were Chinese hamster ovary cells (CHO) constitutively expressing human CIC-1 channels. The amino acid sequence encoded by the cDNA used to create this cell line was identical to the translated sequence for GenBank accession number NM_000083.2. Cells were produced by Charles River (Catalogue CT6175, Cleveland Ohio, USA) in a cryopreserved format. Experiments were performed on the cells directly after thawing (3×10^6 cells used in each experiment).
To evaluate the compound effect on CIC-1, when applied directly to the intracellular side of the cell membrane, the half activation voltage, V1/2, was determined from whole cell patches with compound added to the intracellular solution and then compared to V1/2 determined from control cell patches with only vehicle added to the intracellular solution. Additionally, the effect of extracellular added compound was evaluated by determine V1/2 and steady state current amplitudes before and after exchanging the extracellular solution to contain compound.
The difference in half activation voltage of CIC-1 channels, ΔV1/2, was determined as the difference between the cell patches treated intracellularly with compound and control cells patches and is reported in Table 4 below. A positive shift in ΔV1/2 is reflecting CIC-1 channel inhibition by the tested compound. P-values of <0.05 is considered significant.

[3] = tested on: female Lewis rats; assay: In situ muscle contractile characteristics (isometric hindlimb force) under Cisatracurium infusion; format: in vivo, rat; conditions: 21.6 mg/kg i.v.; 80 Hz stimulation; neuromuscular transmission partially inhibited by Cisatracurium
Procedure: Isometric hindlimb force was measured in 12-week old female Lewis rats in the presence and absence of compound.
Rats were placed under anesthesia with isoflurane (2-4%), intubated and subsequently connected to a micro ventilator (Microvent 1, Hallowell EMC, US). Two stimulation electrodes were inserted through the skin to stimulate the sciatic nerve. A small incision was made proximal to the ankle, to expose the Achilles tendon, which was tied by cotton string, and connected to a force transducer (Fort250, World Precision Instruments) with adjustable position (Vernier control). The Achilles tendon was then cut distal to the attached cotton string. […]
Muscle contractile properties were assessed by applying an electrical current (under supramaximal voltage conditions) to the nerve and recording the force generated by the muscle. The muscle was stretched until maximal force was obtained, when assessed by 2 Hz stimulation. Isometric force was measured every 30 seconds at 12 Hz (Twitch), 10 pulses, and at every 5 minutes at 80 Hz (Tetanic) for 1 second (80 pulses). […] The effect of test article was assessed on its ability to increase force generated from the stimulation pattern applied. The effect was assessed in the ability to increase force per se (tetanic, 80 Hz, stimulation), and the ratio between individual twitch peaks (12 Hz stimulation). […]

T1 sequence (P35523 whole entry, canonical isoform): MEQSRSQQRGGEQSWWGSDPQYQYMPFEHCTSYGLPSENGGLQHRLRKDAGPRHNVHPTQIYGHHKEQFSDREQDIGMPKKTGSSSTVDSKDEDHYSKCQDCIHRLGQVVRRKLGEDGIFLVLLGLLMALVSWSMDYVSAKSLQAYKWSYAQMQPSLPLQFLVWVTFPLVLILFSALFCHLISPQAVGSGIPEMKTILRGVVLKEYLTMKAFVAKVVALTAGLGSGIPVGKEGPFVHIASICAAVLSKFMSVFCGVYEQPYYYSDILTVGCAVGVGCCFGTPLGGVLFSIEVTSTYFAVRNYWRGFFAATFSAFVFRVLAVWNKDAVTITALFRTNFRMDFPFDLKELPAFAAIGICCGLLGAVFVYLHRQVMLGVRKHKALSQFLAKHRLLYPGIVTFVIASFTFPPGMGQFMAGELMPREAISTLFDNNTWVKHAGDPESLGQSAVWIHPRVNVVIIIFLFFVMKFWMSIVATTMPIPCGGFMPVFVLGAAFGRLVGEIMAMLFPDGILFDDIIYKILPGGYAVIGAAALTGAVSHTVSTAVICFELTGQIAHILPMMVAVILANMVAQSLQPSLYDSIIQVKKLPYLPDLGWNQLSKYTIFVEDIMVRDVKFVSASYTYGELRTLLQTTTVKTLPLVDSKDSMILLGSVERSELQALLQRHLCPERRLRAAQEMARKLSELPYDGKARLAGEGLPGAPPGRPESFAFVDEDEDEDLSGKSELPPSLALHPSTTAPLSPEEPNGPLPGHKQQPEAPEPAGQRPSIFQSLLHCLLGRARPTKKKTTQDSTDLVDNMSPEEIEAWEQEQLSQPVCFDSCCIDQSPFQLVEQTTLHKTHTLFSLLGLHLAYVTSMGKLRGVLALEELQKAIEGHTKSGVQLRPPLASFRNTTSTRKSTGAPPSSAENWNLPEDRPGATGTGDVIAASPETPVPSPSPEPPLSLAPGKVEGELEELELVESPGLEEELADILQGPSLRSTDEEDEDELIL

SMILES: C[C@H](Oc1ccc(Cl)cc1)C(=O)NOC1CCC1 [Compound C-80, (2S)-2-(4-chlorophenoxy)-N-cyclobutoxypropanamide]
- activation at 50 µM [1]: 47%
- ΔV1/2 (difference in half activation voltage of CIC-1 channels) [2]: 9.9 mV

SMILES: C[C@H](Oc1ccc(Br)cc1F)c1nn[nH]n1 [Compound E-8, 5-[(1S)-1-(4-bromo-2-fluorophenoxy)ethyl]-2H-1,2,3,4-tetrazole]
- activation at 50 µM [1]: 34%
- ΔV1/2 (difference in half activation voltage of CIC-1 channels) [2]: 38.4 mV
- increase in tetanic force [3]: 11%
